Data taken from US8354237B2, “Anti-methylation-controlled j protein antibodies and uses thereof” (University of Vermont and State Agriculture College, priority 2007, dated 2013).
Peptide text beside a SMILES is read from it. * marks the point of attachment. Cbz = O=C(OCc1ccccc1)*

How the values were obtained:
Format in all cases: cell-based, human
MCF7/siMCJ-1B cells [1] = experiment: Analysis of drug internalization (flow cytometry, confocal microscopy); details: for effect on intracellular accumulation of doxorubicin: verapamil 10 μM
Method: (§1) MCF7, MCF7/ADR, MCF7/siMCJ-1B and MCF7/siMCJ-3B cells were treated with doxorubicin (0.3 or 3 μM) for 3 h at 37° C. Negative controls had no drug added. Cells were washed 3 times with PBS and trypsinised and doxorubicin fluorescence was examined by flow cytometry using a LSRII flow cytometer (BD Biosciences, Mass.). FLP3, 695/40 nm filter with 685 nm long pass was used to measure doxorubicin fluorescence. For MCF7/siMCJ cells, EGFP was detected in FLP1, 530/30 nm band-pass with 505 nm long pass. No overlap of two fluorescences could be detected. Confocal microscopy: MCF7, MCF7/ADR, MCF7/siMCJ-1B and -3B (3×10^4) cells were seeded on BD Biocoat coverslips (BD Biosciences, Bedford, Mass.) and treated with doxorubicin in the presence or absence of veraparnil (10 μM). After different periods of time (0, 2, 3 h) cells were washed with PBS and fixed in 3.7% paraformaldehyde to be examined by confocal microscopy. Since both, EGFP (present in MCF7/siMCJ cells) and doxorubicin are excited by 488 nm, the conventional multi track type of analysis could not be used. Instead, the Lambda Mode analysis in the Zeiss confocal microscope (Zeiss LSM 510 META Confocal Laser Scanning Imaging System, Carl Ziess Microimaging Inc, Thronwood, N.Y.) was used that allows a precise analysis of the emission spectrum for each fluorochrome (Chen and Simon, J Cell Biol 148, 863-870, 2000). The cells were excited at 488 nm and emission peaks were readily separated by this methodology with EGFP emission at 500 nm and doxorubicin at 600 nm (FIG. 10).

MCF7 cells [2] = experiment: as above
Method: as §1

MCF7 cells [3] = experiment: Cell viability assay (MTT assay); details: for response of cells to drug (percent viability, MTT assay): MCF7 cells
Method: (§2) MCF7 and MCF7/ADR cells were a kind gift from Dr. Ken Cowan (National Cancer Institute, Bethesda, Md.). MCF7, MCF7/ADR, MCF7/siMCJ-1B MCF7/siMCJ-3B, […], MD22, MES-SA and MES-Dx5 cells were maintained in RPMI-1640 (Life technologies, Inc., Gaithersburg, Md.) containing 5% FBS (Hyclone, Logan, Utah), Penicillin/streptomycin and 1-glutamine (Gibco). 293T cells were cultured in DMEM-F12 medium (Life technologies, Inc.) supplemented with 10% FBS (Hyclone, Logan, Utah).
(§3) The dose response of cell line to different drugs was determined by MTT assay as described previously (Conze et al., Cancer Res 61, 8851-8858, 2001; Sladowski et al., J Immunol Methods 157, 203-207, 1993). Different concentrations of drug were used, ranging from 0-100 μM for Doxorubicin, 0-30 μM for Paclitaxel and 0-30 μM for 5-Flurouracil. LD50 values were calculated by non-linear regression and plotted graphically as percentage of viable cells.

c-Jun = c-Jun expression by Western blot in MCF7 cells treated with proteasome inhibitor; details: MG132 5 μM, 4 h
Method: Whole cell extracts were prepared in lysis buffer as previously described (Pedraza-Alva et al., J Biol Chem 276, 729-737, 2001). 40-100 μg of proteins were separated by electrophoresis and transferred on to a nitrocellulose membrane (Conze et al., Cancer Res 61, 8851-8858, 2001). Primary antibodies for Western blotting include anti-ABCB1 (JSB-1 clone) from (ALEXIS corporation Switzerland), rabbit polyclonal anti-MCJ, anti-HA, anti-c-Jun, from (Cell Signaling Technology, Inc) anti-actin and the secondary antibodies goat anti-mouse HRP, goat anti-rabbit HRP and donkey anti-goat HRP Ab from (Santa Cruz Biotechnology). LUMIGLO® chemiluminescent substrate system (KPL, Maryland) was used to visualize the proteins. Levels of actin were determined as loading control.
It was determined whether the increased c-Jun DNA binding in siMCJ cells could be due to an upregulation of c-Jun protein levels. The levels of c-Jun by Western blot analysis were examined using whole cell lysates. Very low levels of c-Jun were detected in MCF7 cells, but high levels were present in MCF7/siMCJ cells (FIG. 8D). It has been previously reported that c-Jun levels can be regulated by ubiquitination and proteasome mediated degradation (Treier et al., Cell 78, 787-798, 1994). […]

MCJ = MCJ mRNA expression by RT-PCR in MCF7 cells cultured with IL-6; details: IL-6 50 ng/ml, 8 days (one week), RT-PCR and real-time RT-PCR
Excerpt: Total RNA was isolated using ULTRASPEC® RNA isolation systems, as recommended by the manufacturer (Biotecx Laboratories, Inc, Houston, Tex.). The first strand cDNA was obtained by reverse transcription as described previously (Conze et al., Cancer Res 61, 8851-8858, 2001). cDNA was used to detect human […], HPRT, MCJ, ABCG2 and ABCC1 expression by conventional PCR or real-time RT-PCR. Previously described primers were used for the conventional RT-PCR amplification of ABCB1 (Noonan et al., Proc Natl Acad Sci USA 87, 7160-7164, 1990), HPRT (Conze et al., Cancer Res 61, 8851-8858, 2001), ABCC1 (Harbottle et al., Int J Cancer 92, 777-783, 2001), ABCG2 (Doyle and Ross, Oncogene 22, 7340-7358, 2003) and MCJ (Shridhar et al., Cancer Res 61, 4258-4265, 2001). For the real-time RT-PCR analysis, by TAQMAN® system (Applied Biosystems), an Assay on Demand Kit for human HPRT and ABCB1 (Sigma, Genosys) was used. For the detection of MCJ by real time RT-PCR, we used the following probe and primer set were used (Sigma, Genosys) (probe 5′-[…]-3; (SEQ ID NO:22) sense primer 5′-CAGAAAATGA GTAGGCGAGAAGC-3′ (SEQ ID NO:23) and anti-sense primer 5′-[…]-3′ (SEQ ID NO:24). HPRT was used as an endogenous control to normalize the mRNA values in each sample. The relative values were determined by the comparative CT analysis method. […]

MCF7/ADR cells [4] = experiment: Analysis of drug internalization (flow cytometry, confocal microscopy); details: 0.3 and 3 μM, 3 h
Method: as §1

MCF7/siMCJ-3B cells [5] = experiment: as above; details: 3 h; for intracellular accumulation of doxorubicin: flow cytometry
Method: as §1

MCF7/siMCJ-1B cells [6] = experiment: Cell viability assay (MTT assay)
Method: as §2, §3

MCF7/ADR cells [7] = experiment: Cell viability assay (MTT assay)
Method: as §2, §3

MCF7/siMCJ-3B cells [8] = experiment: Cell viability assay (MTT assay)
Method: as §2, §3

## COc1ccc(CCN(C)CCCC(C#N)(c2ccc(OC)c(OC)c2)C(C)C)cc1OC (stereo not shown) [verapamil]
MCF7/siMCJ-1B cells [1]; confocal microscopy, doxorubicin 3 h
  effect on intracellular accumulation of doxorubicin: clear intracellular accumulation was observed
MCF7/siMCJ-1B cells [1]; flow cytometry, doxorubicin 3 μM, 3 h
  effect on intracellular accumulation of doxorubicin: allowed the intracellular accumulation of doxorubicin
MCF7 cells [2]; flow cytometry, verapamil 10 μM, doxorubicin 3 μM, 3 h
  effect on intracellular accumulation of doxorubicin: no effect

## O=c1[nH]cc(F)c(=O)[nH]1 [5-FU, 5-fluorouracil]
MCF7 cells [3]; MCF7, MCF7/ADR, MCF7/siMCJ-1B and -3B cells
  dose-response compared between cell lines (MTT assay): comparable

## CC(C)C[C@@H](C=O)NC(=O)[C@H](CC(C)C)NC(=O)[C@H](CC(C)C)NC(=O)OCc1ccccc1 [MG132] (Cbz-Leu-Leu-Leu-aldehyde)
c-Jun
  c-Jun levels compared with untreated MCF7 cells: Increased levels

## IL-6: exogenous IL-6 added to MCF7 cell culture
MCJ
  MCJ mRNA levels compared with untreated MCF7 cells: reduced levels

## COc1cccc2c1C(=O)c1c(O)c3c(c(O)c1C2=O)C[C@@](O)(C(=O)CO)C[C@@H]3O[C@H]1C[C@H](N)[C@H](O)[C@H](C)O1 [doxorubicin]
MCF7/siMCJ-1B cells [1]; confocal microscopy, 3 h
  doxorubicin fluorescence (intracellular accumulation): no doxorubicin fluorescence was observed
MCF7/siMCJ-1B cells [1]; flow cytometry, 0.3 μM, 3 h
  intracellular accumulation of doxorubicin: no intracellular accumulation
MCF7/siMCJ-1B cells [1]; flow cytometry, 3 μM, 3 h
  intracellular accumulation of doxorubicin: very low intracellular levels
MCF7/ADR cells [4]
  intracellular accumulation of doxorubicin: no doxorubicin was observed
MCF7 cells [2]; confocal microscopy, 1, 2 or 3 h
  doxorubicin fluorescence (intracellular accumulation): maximum level of intracellular accumulation was reached after 3 h
MCF7 cells [2]; flow cytometry, 0.3 and 3 μM, 3 h
  intracellular accumulation of doxorubicin: High levels
MCF7/siMCJ-3B cells [5]; confocal microscopy
  doxorubicin fluorescence (intracellular accumulation): no doxorubicin fluorescence was observed
MCF7/siMCJ-3B cells [5]; 0.3 μM
  intracellular accumulation of doxorubicin: no intracellular accumulation
MCF7/siMCJ-3B cells [5]; 3 μM
  intracellular accumulation of doxorubicin: very low intracellular levels
MCF7/siMCJ-1B cells [6]
  response of cells to drug (percent viability, MTT assay): significantly more resistant
MCF7/ADR cells [7]
  response of cells to drug (percent viability, MTT assay): highly resistant
MCF7 cells [3]
  response of cells to drug (percent viability, MTT assay): highly sensitive
MCF7/siMCJ-3B cells [8]
  response of cells to drug (percent viability, MTT assay): significantly more resistant

## CC(=O)O[C@H]1C(=O)[C@@]2(C)[C@H]([C@H](OC(=O)c3ccccc3)[C@]3(O)C[C@H](OC(=O)[C@H](O)[C@@H](NC(=O)c4ccccc4)c4ccccc4)C(C)=C1C3(C)C)[C@]1(OC(C)=O)CO[C@@H]1C[C@@H]2O [paclitaxel]
MCF7/siMCJ-1B cells [6]
  response of cells to drug (percent viability, MTT assay): highly resistant
MCF7 cells [3]
  response of cells to drug (percent viability, MTT assay): highly sensitive
MCF7/siMCJ-3B cells [8]
  response of cells to drug (percent viability, MTT assay): highly resistant
